The results in this text go back to patent publication US7759345B2, “Antitumoral derivatives of ET-743” (priority 2001, dated 2010).

The test system of one data set is MEL-28. Put plainly: Inhibition of cell growth by counting cells, MEL-28. Conditions: Homo sapiens, SK-MEL-28, 72 h; three days of incubation; read-out: IC50 (molar) MEL-28. It is filed as cell-based, human. The essentials:
(§1)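 Cells were seeded at 1×10^4 per well in EMEM with 5% FCS containing test sample and incubated 3 days at 37 °C, 5% CO2, in duplicate. Cells were then trypsinized and Coulter-counted, and growth was expressed relative to drug-free controls. IC50 (50% growth inhibition) was taken from dose-response curves.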

The next data set relates to A-549. Put plainly: Inhibition of cell growth by counting cells, A-549. It is filed as cell-based, human. To be noted: Homo sapiens, A549, 72 h; three days of incubation; read-out: IC50 (molar) A-549. The procedure, abridged: as §1
Another data set deals with HT-29. Description: Inhibition of cell growth by counting cells, HT-29. Format: cell-based, human. To be noted: Homo sapiens, HT-29, 72 h; three days of incubation; read-out: IC50 (molar) HT-29. The essentials:
as §1

The test system of the next data set is P-388. Put plainly: Inhibition of cell growth by counting cells, P-388. Format: cell-based, mouse. Conditions: Mus musculus, P388, 72 h; three days of incubation; read-out: IC50 (molar) P-388. The procedure, abridged: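 Mouse P-388 lymphoid neoplasm suspension cells seeded at 1×10^4 cells/well in EMEM 5% FCS containing graded sample concentrations, in duplicate alongside drug-free growth controls. Cells counted by Coulter counter; % growth vs untreated gives dose-response curves, IC50 = concentration producing 50% growth inhibition.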

SMILES strings stand for the structures.

From the text for Heart: (§2) Toxicity was asssessed by the methods reported in Toxicology in Vitro, 15 (2001) 571-577, J. Luber Narod et al.: “Evaluation of the use of in vitro methodolodies as tools for screening new compounds for potential in vivo toxicity”.
From the text for Kidney: as §2
From the text for Liver: as §2
From the text for Myelo: as §2
From the text for Skeletal: as §2

As for `C=CCOC(=O)Oc1cc2c(cc1OC)[C@@]1(CS[C@@H]3c4c(OC(C)=O)c(C)c5c(c4[C@H](COC1=O)N1C3[C@H]3c4c(cc(C)c(OC)c4O)C[C@@H]([C@@H]1O)N3C)OCO5)NCC2` (some centres unmarked) [Compound 64], the IC50 (usually the concentration that gives 50% inhibition) in the data set with MEL-28 was 0.592 nM; in the data set on A-549, 0.592 nM; in the data set on HT-29, 0.592 nM; with P-388, 0.118 nM. Besides, the “Toxicity Data Kidney” value with Kidney is 1.77E-08. Also, the “Toxicity Data Skeletal” value with Skeletal was 1.66E-09. In addition, the “Toxicity Data Myelo” value in the data set on Myelo is listed as 1.93E-08. For the same molecule, the “Toxicity Data Heart” value with Heart is 5.50E-08. In addition, the “Toxicity Data Liver” value with Liver stood at 2.57E-08.

Take `CCOc1cc2c(cc1OC)[C@@]1(CS[C@@H]3c4c(OC(C)=O)c(C)c5c(c4[C@H](COC1=O)N1C3[C@H]3c4c(cc(C)c(OC)c4O)C[C@@H]([C@@H]1O)N3C)OCO5)NCC2` (some centres unmarked) [Compound 68]: the IC50 in the data set with A-549 and with HT-29 was 0.633 nM each time. In the data set on Kidney, the “Toxicity Data Kidney” value worked out at 5.10E-09. The “Toxicity Data Skeletal” value in the data set on Skeletal stood at 1.27E-08. Further, in the data set on Myelo, the “Toxicity Data Myelo” value amounted to 1.89E-08. Also, in the data set on Heart, the “Toxicity Data Heart” value stood at 1.13E-08. Besides, the “Toxicity Data Liver” value in the data set with Liver amounted to 1.76E-08.

Regarding `COc1cc2c(cc1OC(=O)[C@H](C)NC(=O)OC(C)(C)C)CCN[C@]21CS[C@@H]2c3c(OC(C)=O)c(C)c4c(c3[C@H](COC1=O)N1C2[C@H]2c3c(cc(C)c(OC)c3O)C[C@@H]([C@@H]1O)N2C)OCO4` (some centres unmarked) [Compound 79], the IC50 in the data set on A-549 and in the data set on HT-29 was 0.107 nM throughout. Besides, the “Toxicity Data Kidney” value with Kidney came out at 1.74E-08. Also, the “Toxicity Data Skeletal” value in the data set on Skeletal stood at 2.75E-09. In addition, the “Toxicity Data Myelo” value in the data set with Myelo is recorded as 1.35E-08. The “Toxicity Data Heart” value in the data set on Heart is given as 3.46E-08. Besides, the “Toxicity Data Liver” value in the data set on Liver was found to be 2.28E-08.

With `CCN1CCc2cc(O)c(OC)cc2[C@@]12CS[C@@H]1c3c(OC(C)=O)c(C)c4c(c3[C@H](COC2=O)N2C1[C@H]1c3c(cc(C)c(OC)c3O)C[C@@H]([C@@H]2O)N1C)OCO4` (some centres unmarked) [Compound 94], the 50% inhibitory concentration (IC50) with MEL-28, with A-549, in the data set on HT-29 and in the data set with P-388 was 0.152 nM throughout. In addition, the “Toxicity Data Kidney” value in the data set with Kidney was determined as 3.49E-09. Also, in the data set on Skeletal, the “Toxicity Data Skeletal” value is 1.44E-09. The “Toxicity Data Myelo” value in the data set on Myelo amounted to 1.13E-08. Moreover, the “Toxicity Data Heart” value in the data set with Heart is 6.66E-08. Besides, in the data set with Liver, the “Toxicity Data Liver” value came out at 1.24E-08.

With `COc1cc2c(cc1O)CCN[C@]21CS[C@@H]2c3c(OC(C)=O)c(C)c4c(c3[C@H](COC1=O)N1C2[C@H]2c3c(cc(C)c(OC)c3OC)C[C@@H]([C@@H]1O)N2C)OCO4` (some centres unmarked) [Compound 98], the IC50 in the data set with A-549 and in the data set on HT-29 was 0.129 nM throughout. In addition, the “Toxicity Data Kidney” value with Kidney is 1.08E-06. Besides, the “Toxicity Data Skeletal” value in the data set with Skeletal stood at 1.24E-08. Besides, the “Toxicity Data Myelo” value in the data set on Myelo came out at 3.79E-08. The “Toxicity Data Heart” value with Heart was found to be 4.98E-08. The “Toxicity Data Liver” value in the data set with Liver is on record as 4.21E-08.

For `C=CCOc1c(C)c2c(c3c1[C@H]1SC[C@]4(NCCc5cc(O)c(OC)cc54)C(=O)OC[C@@H]3N3C1[C@H]1c4c(cc(C)c(OC)c4O)C[C@@H]([C@@H]3O)N1C)OCO2` (some centres unmarked) [Compound 183], the IC50 in the data set on A-549 and in the data set with HT-29 was 0.132 nM each time. Moreover, the “Toxicity Data Kidney” value with Kidney amounted to 6.72E-03. For the same molecule, in the data set with Skeletal, the “Toxicity Data Skeletal” value was found to be 2.67E-08. The “Toxicity Data Myelo” value in the data set with Myelo is 2.39E-08. Moreover, the “Toxicity Data Heart” value with Heart came out at 3.72E-08. In the data set on Liver, the “Toxicity Data Liver” value is on record as 3.03E-08.

As to `CCCCCCCC(=O)Oc1cc2c(cc1OC)[C@@]1(CS[C@@H]3c4c(OC(C)=O)c(C)c5c(c4[C@H](COC1=O)N1C3[C@@H]3N[C@@H](Cc4cc(C)c(OC)c(O)c43)[C@@H]1O)OCO5)NCC2` (some centres unmarked) [Compound 213], the half-maximal inhibitory concentration (IC50) in the data set with A-549 and in the data set on HT-29 was 0.114 nM throughout. Further, the “Toxicity Data Kidney” value with Kidney was 1.48E-08. Besides, the “Toxicity Data Skeletal” value with Skeletal was 1.72E-07. In addition, the “Toxicity Data Myelo” value with Myelo came to 2.70E-08. For the same molecule, in the data set with Heart, the “Toxicity Data Heart” value is recorded as 1.82E-07. For the same molecule, in the data set with Liver, the “Toxicity Data Liver” value worked out at 3.93E-08.
